SMILES strings stand for the structures.

For assay [1], the target named is T1, 5-hydroxytryptamine receptor 1A (Homo sapiens, UniProt P08908).
T1 sequence (P08908 whole entry): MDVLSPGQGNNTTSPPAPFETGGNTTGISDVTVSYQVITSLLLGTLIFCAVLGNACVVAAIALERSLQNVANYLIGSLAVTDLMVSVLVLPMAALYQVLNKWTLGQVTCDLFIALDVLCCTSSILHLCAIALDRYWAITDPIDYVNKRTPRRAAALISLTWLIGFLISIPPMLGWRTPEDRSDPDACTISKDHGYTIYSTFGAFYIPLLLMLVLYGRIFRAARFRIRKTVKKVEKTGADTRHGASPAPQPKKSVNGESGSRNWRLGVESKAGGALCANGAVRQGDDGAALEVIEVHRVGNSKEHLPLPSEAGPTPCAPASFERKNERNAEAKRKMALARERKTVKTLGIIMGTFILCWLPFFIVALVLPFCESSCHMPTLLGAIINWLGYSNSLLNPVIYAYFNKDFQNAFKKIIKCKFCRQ
Put plainly: Antagonistic affinity against cloned human 5-hydroxytryptamine 1A receptor. It counts as functional.

In assay [2] the target is T2, Adrenergic receptor alpha-2 (Rattus norvegicus, UniProt P22086+P19328+P22909).
T2 sequence (P22086 whole entry): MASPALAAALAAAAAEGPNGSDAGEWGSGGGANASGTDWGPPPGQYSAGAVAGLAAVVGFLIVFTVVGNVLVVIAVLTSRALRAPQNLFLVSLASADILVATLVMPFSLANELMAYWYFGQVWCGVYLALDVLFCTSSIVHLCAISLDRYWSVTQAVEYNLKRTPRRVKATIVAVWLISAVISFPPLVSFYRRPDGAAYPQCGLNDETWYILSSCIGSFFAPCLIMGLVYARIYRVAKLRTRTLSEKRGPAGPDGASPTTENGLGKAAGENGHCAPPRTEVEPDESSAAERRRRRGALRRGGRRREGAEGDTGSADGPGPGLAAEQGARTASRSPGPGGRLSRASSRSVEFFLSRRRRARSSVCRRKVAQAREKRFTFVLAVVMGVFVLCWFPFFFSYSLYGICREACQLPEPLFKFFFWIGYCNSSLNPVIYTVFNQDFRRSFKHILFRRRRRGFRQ
T2 sequence (P19328 whole entry): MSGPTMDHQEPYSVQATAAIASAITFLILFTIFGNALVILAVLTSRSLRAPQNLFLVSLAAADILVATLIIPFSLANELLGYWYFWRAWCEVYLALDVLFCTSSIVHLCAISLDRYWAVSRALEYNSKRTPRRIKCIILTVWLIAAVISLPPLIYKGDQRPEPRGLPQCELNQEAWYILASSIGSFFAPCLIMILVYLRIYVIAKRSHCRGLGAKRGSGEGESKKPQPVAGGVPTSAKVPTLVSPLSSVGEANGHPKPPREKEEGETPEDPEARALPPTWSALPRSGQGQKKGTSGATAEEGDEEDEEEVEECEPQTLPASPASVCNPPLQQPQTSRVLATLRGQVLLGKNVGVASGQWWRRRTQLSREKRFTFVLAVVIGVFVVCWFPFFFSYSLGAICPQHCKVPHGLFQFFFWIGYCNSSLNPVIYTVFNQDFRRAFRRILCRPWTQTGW
T2 sequence (P22909 whole entry): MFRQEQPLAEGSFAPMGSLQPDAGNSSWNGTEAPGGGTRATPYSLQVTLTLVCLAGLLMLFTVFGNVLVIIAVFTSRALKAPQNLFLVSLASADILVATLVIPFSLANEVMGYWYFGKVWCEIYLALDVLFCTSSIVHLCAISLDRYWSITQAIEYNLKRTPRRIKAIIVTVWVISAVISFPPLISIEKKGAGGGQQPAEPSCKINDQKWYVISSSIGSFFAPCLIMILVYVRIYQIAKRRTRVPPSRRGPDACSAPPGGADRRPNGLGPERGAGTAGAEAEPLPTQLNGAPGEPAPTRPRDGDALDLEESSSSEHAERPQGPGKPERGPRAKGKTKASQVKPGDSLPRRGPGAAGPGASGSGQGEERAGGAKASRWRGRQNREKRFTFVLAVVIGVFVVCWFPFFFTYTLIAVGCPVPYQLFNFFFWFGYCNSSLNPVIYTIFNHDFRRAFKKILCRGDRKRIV
Put plainly: Antagonistic affinity against native rat cortex Alpha-2 adrenergic receptor. It counts as functional, tissue-based.

For assay [3], the target named is T3, Alpha-1A adrenergic receptor (Rattus norvegicus, UniProt P43140).
T3 sequence (P43140 whole entry): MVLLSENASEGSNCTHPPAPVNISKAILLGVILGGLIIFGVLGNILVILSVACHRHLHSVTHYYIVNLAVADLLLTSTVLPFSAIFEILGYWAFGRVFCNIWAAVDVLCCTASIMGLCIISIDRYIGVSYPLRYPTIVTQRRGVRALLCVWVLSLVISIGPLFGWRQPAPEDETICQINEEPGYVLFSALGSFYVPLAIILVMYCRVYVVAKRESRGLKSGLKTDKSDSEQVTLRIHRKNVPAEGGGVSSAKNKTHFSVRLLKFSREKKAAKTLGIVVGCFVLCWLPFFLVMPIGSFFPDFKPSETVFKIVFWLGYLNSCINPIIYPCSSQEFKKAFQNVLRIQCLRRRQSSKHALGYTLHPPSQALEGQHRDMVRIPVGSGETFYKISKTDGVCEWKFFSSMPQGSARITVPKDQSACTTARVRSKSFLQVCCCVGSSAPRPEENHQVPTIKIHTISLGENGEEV
Put plainly: Antagonistic affinity against Alpha-1A adrenergic receptor was determined in isolated prostatic vas deferens tissue from rat. In kind it is functional, tissue-based. As to conditions: read-out: pA2 (converted).

In assay [4] the target is T4, Alpha-1D adrenergic receptor (Rattus norvegicus, UniProt P23944).
T4 sequence (P23944 whole entry): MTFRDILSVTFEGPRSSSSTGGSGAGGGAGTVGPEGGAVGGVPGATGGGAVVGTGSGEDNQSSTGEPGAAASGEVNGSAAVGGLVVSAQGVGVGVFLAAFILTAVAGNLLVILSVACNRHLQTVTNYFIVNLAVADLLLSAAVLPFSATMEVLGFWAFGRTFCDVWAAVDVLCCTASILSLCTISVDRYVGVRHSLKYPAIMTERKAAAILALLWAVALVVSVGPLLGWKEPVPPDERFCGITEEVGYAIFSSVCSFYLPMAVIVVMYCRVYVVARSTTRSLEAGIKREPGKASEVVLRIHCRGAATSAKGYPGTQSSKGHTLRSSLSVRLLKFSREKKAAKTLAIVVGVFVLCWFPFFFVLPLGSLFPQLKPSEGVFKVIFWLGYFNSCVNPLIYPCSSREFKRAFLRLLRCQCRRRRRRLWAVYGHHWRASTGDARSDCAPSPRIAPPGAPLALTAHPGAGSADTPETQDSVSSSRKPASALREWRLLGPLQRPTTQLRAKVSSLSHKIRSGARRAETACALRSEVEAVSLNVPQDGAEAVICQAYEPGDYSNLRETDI
Put plainly: Antagonistic affinity against Alpha-1D adrenergic receptor was determined in isolated thoracic aorta from rat. In kind it is functional, tissue-based. The note with it: read-out: pA2 (converted).

Assay [5] addresses T5, Alpha-1B adrenergic receptor (Rattus norvegicus, UniProt P15823).
T5 sequence (P15823 whole entry): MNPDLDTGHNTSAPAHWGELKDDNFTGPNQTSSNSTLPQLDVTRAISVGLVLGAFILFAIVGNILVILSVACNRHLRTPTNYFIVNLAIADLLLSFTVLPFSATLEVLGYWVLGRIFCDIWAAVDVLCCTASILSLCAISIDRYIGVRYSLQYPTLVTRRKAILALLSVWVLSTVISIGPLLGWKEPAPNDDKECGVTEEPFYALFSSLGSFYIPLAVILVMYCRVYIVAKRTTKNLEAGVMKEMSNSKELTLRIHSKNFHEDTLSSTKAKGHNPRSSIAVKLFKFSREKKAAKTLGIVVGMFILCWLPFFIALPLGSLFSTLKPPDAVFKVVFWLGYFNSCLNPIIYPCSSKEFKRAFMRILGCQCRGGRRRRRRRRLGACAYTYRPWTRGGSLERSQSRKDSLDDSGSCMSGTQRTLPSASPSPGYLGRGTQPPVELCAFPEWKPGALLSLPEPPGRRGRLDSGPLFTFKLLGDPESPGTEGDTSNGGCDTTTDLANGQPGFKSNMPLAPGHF
Put plainly: Antagonistic affinity against Alpha-1B adrenergic receptor was determined in isolated spleen tissue from rat. In kind it is functional, tissue-based. The note with it: read-out: pA2 (converted).

For another assay, the target named is D(2) dopamine receptor (Rattus norvegicus, UniProt P61169). In words: Antagonistic affinity against rat striatum Dopamine receptor D2. It counts as functional, tissue-based.
Chain of D(2) dopamine receptor (P61169 whole entry): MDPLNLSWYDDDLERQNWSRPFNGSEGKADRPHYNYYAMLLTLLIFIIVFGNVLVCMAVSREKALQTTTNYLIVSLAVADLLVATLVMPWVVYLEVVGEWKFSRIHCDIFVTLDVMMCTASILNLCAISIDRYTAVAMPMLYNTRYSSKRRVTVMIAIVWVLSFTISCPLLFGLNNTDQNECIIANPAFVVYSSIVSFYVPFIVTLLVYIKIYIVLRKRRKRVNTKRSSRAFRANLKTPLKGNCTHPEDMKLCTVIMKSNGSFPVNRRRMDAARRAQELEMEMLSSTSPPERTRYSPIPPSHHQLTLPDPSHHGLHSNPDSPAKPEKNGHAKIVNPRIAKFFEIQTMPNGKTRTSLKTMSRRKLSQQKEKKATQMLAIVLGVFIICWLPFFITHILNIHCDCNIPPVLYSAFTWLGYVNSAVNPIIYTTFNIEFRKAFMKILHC

As for `COc1cc2nc(N(C)CCCCCCN(C)C(=O)c3ccco3)nc(N)c2cc1OC`, the Ki was greater than 1000 nM in assay [1] and 2340 nM at D(2) dopamine receptor. In addition, the “Log Ki” value in assay [2] is listed as -7. In addition, the Kb in assay [3] is 0.912 nM; in assay [4], 0.646 nM; in assay [5] it was 0.145 nM.

In the case of `COc1cc2nc(N(C)CCSSCCN(C)C(=O)c3ccco3)nc(N)c2cc1OC`, the inhibition constant Ki in assay [1] is greater than 1000 nM. For the same compound, in assay [2], the “Log Ki” value was -6.23. In addition, the Kb in assay [3] is 29.5 nM; in assay [4], 2.88 nM; in assay [5], 32.4 nM.

`COc1cc2nc(NCCSSCCNC(=O)c3ccco3)nc(N)c2cc1OC`: the Kb in assay [3] was 1780 nM; in assay [4], 45.7 nM; in assay [5], 115 nM.

For the compound `COc1ccccc1N1CCN(CCN2C(=O)CC3(CCCC3)CC2=O)CC1.Cl.Cl`, the Ki in assay [1] was 1.74 nM; at D(2) dopamine receptor, 47.9 nM. Moreover, the “Log Ki” value in assay [2] is listed as -5.98. Moreover, the Kb in assay [5] is 28.2 nM.

Regarding `COc1cc2nc(N3CCN(C(=O)c4ccco4)[C@H]4CCCC[C@H]43)nc(N)c2cc1OC` [CYCLAZOSIN], the Ki is greater than 1000 nM in assay [1] and 8320 nM on D(2) dopamine receptor. Moreover, the “Log Ki” value in assay [2] is recorded as -6.13. The Kb in assay [3] was 33.1 nM.

As for `COc1cc2nc(N3CCN(C(=O)c4ccco4)CC3)nc(N)c2cc1OC` [PRAZOSIN], at D(2) dopamine receptor, the Ki was greater than 10000 nM.

The values are drawn from ChEMBL document CHEMBL1130820, “Search for alpha 1-adrenoceptor subtypes selective antagonists: design, synthesis and biological activity of cystazosin, an alpha 1D-adrenoceptor antagonist” (Bioorg Med Chem Lett, 1998).
